Patent US20130217050A1, “METHOD FOR DIAGNOSING ALZHEIMER'S DISEASE USING-SOLUBLE GPVI” (MOCHIDA PHARMACEUTICAL CO., LTD., priority 2010, published 2013)

System: washed monkey platelets
Test: sGPVI production mechanism using monkey washed platelets
Format: cell-based
Details: stimulating agent added to washed platelet suspension with calcium chloride, 37° C. for 1 hour; sGPVI in supernatant by ELISA; compared with control group without stimulating agent (FIG. 8)
Method: Human serum and human plasma were prepared by a 100-fold or more dilution with 0.1% BSA, 0.05% Tween 20, and 0.3 M NaCl/D-PBS and added to the F1232-7-1-immobilized plate to incubate at 28° C. for 2 hours. In addition, a recombinant human sGPVI-His that was expressed and purified by Free Style 293 Expression System (manufactured by Invitrogen) was used as the reference material. After the reaction incubation, the plate was washed with physiological saline containing 0.05% Tween 20. F1232-10-2 Fab′-HRP prepared in Example 1 as a secondary labeled antibody was diluted 100-fold with 2% rat serum and 0.05% Tween 20/D-PBS and added to the well to incubate at 28° C. for 1 hour. After washing the plate, tetramethylbenzidine (hereinafter described as TMB) that was returned to room temperature was added, and incubated for 10 minutes. After stopping the reaction by the addition of 0.5 M sulfuric acid, the absorbance at 450 nm was measured using a microplate reader SpectraMax (manufactured by Molecular Devices), and the absorbance at 650 nm was subtracted as a reference. The resulting absorbance was analyzed using a microplate data analysis software (SoftMax Pro 5.2, manufactured by Molecular Devices). In addition, the data was expressed in terms of mean±standard error (SE) in principle.
Whole blood was collected from the monkey's leg vein using sodium citrate as an anticoagulant. Platelet-rich plasma (hereinafter described as PRP) was prepared by centrifuging the obtained whole blood at 900 rpm×10 minutes, and only PRP fraction was separated gently by PIPETMAN to transfer it to a new tube. The PRP was centrifuged at 2000 rpm×10 minutes at room temperature to precipitate the platelets. […] The number of platelets was counted by Sysmex F-820 (To a Medical Electronics Co., Ltd.), and the platelet count was adjusted to 40.0×10^7/ml. […]
The production of sGPVI was examined by adding various stimulating agents such as collagen, sAβ, or fAβ, to monkey washed platelets. […] The concentration of sGPVI in the reaction mixture was measured by the ELISA method as described in Example 2.

Substance: sAβ: Aβ1-42 (AnaSpec Inc) just after diluted in D-PBS, used as soluble amyloid β
- production of sGPVI: production of sGPVI was not observed

Substance: collagen
- production of sGPVI: production of sGPVI was observed

Substance: fibril Aβ: Aβ1-42 incubated at room temperature for one week after the dilution in D-PBS, used as fibril amyloid β
- production of sGPVI: production of sGPVI was observed
